Data set [1] in a line: Test of resistance to acid hydrolysis (1H NMR). The settings on record: for half-life: 1.0 N D2SO4/D2O, pH 1.37.
Data set [2] addresses Clostridium perfringens sialidase (Clostridium perfringens, UniProt A0A0H2YQR1). The format is biochemical.
Data set [3] relates to influenza virus A/Aichi/2/68 (H3N2). The format is binding.
Data set [4] concerns influenza virus A/PR/8/34 (H1N1) hemagglutinin. The data set is described as follows: Hemagglutination inhibitory assay with human erythrocytes. The format is cell-based. As to conditions: lowest concentration that completely inhibited agglutination; viruses 2^4 HA units, 4° C., 1 hour.
Data set [5] relates to sialidase of influenza virus A/Singapore/1/57 (H2N2). The format is biochemical, human isolate. The settings on record: read-out: Inhibitory activity (IC50, μM) 4-MU-Neu5Ac as substrate.
Data set [6] relates to sialidase of influenza virus A/Aichi/2/68 (H3N2). The format is biochemical, human isolate.
Data set [7] deals with sialidase of influenza virus A/duck/36/4/76 (H1N1). The format is biochemical, avian isolate. The settings on record: read-out: Inhibitory activity (IC50, μM) 4-MU-Neu5Ac as substrate.
Data set [8] deals with sialidase of influenza virus A/duck/849/3/80 (H4N1). The format is biochemical, avian isolate.
Data set [9] concerns sialidase of influenza virus A/duck/13/2/76 (H6N1). The format is biochemical, avian isolate.
The test system of data set [10] is sialidase of influenza virus A/duck/33/3/76 (H10N1). The format is biochemical, avian isolate.
For data set [11], the system named is sialidase of influenza virus A/duck/273/8/78 (H2N2). The format is biochemical, avian isolate.
Data set [12] concerns sialidase of influenza virus A/duck/24/5/76 (H3N2). The format is biochemical, avian isolate.
Data set [13] concerns sialidase of influenza virus A/duck/47/5/76 (H7N2). The format is biochemical, avian isolate.
The subject of data set [14] is sialidase of influenza virus A/duck/86/1/76 (H9N2). The format is biochemical, avian isolate.
The test system of data set [15] is sialidase of influenza virus A/duck/44/3/76 (H11N3). The format is biochemical, avian isolate.
In data set [16] the test system is sialidase of influenza virus A/duck/862/5/80 (H12N5). The format is biochemical, avian isolate.
In data set [17] the test system is sialidase of influenza virus A/swine/Hokkaido/2/81 (H1N1). The format is biochemical, swine isolate. The settings on record: read-out: Inhibitory activity (IC50, μM) Neu5Ac-DSPE as substrate.
In data set [18] the test system is sialidase of influenza virus A/swine/Italy/309/83 (H3N2). The format is biochemical, swine isolate.
Data set [19] has as its system influenza virus A/Aichi/2/68 (H3N2) strain. As to the kind of experiment: Inhibition of infection of influenza virus to MDCK cells (LDH release, cytopathic effect). The settings on record: LDH released from infected cells. The format is cell-based. (In general: LDH in the medium is a marker of cell lysis.)
For data set [20] the test system is unchanged. The format is cell-based. The settings on record: read-out: IC50, early stage of infection.
The test system is the same in data set [21]. The format is cell-based. The settings on record: read-out: IC50 of prevention of cytopathic effects, late stage. A general note: Damage to the host cells serves as the signal in cytopathic effect assays.
For data set [22], the target named is sialidase of influenza virus A/PR/8/34 (H1N1) (Influenza A virus, UniProt P03468).
[23] abbreviates: read-out: Inhibitory activity (IC50, μM) 4-MU-Neu5Ac as substrate.
The mark [24] stands for this setting: read-out: Inhibitory activity (IC50, μM) Neu5Ac-DSPE as substrate.

Where two headings read alike, the source gives them in different places.

Take `CC(=O)NC1C(O)CC(Oc2ccc([N+](=O)[O-])cc2)(C(=O)O)OC1C(O)C(O)CO` (centres unmarked) [Compound 2]: the “Hydrolysis T½ (hour) 1N sulfuric acid 50° C.” value in data set [1] (1N sulfuric acid, 50° C.) stood at 0.15 h.

With `CC(=O)NC1C(O)C(O)C(Oc2ccc([N+](=O)[O-])cc2)(C(=O)O)OC1C(O)C(O)CO` (centres unmarked) [Compound 3], the “Ki (M) NA (C. perfringens)” value in [2] is reported as “Very weak”. This compound gave a half-life in [1] of 23 h.

`CC(=O)NC1C(O)C(F)C(Oc2ccc([N+](=O)[O-])cc2)(C(=O)O)OC1C(O)C(O)CO` (centres unmarked) [Compound 5]: in data set [1], the half-life was 48 h.

With `CCCCCCCCCCCCCCCCCC(=O)CC(COC(=O)CCCCCCCCCCCCCCCCC)COP(=O)(O)OCCNCCOC1(C(=O)O)CC(O)C(NC(C)=O)C(C(O)C(O)CO)O1` (centres unmarked) [Compound 6], in data set [3], the “Binding assay (%) H3N2” value is 25%. The “HAI (M) H1N1” value in [4] was determined as 0.001 M.

On to `CCCCCCCCCCCCCCCCCC(=O)CC(COC(=O)CCCCCCCCCCCCCCCCC)COP(=O)(O)OCCNCCOC1(C(=O)O)OC(C(O)C(O)CO)C(NC(C)=O)C(O)C1O` (centres unmarked) [Compound 7], for which the “affinity to H3 type virus HA relative to Compound 6” value in data set [3] is 144%. Besides, the “HAI (M) H1N1” value in data set [4] was found to be 0.001 M.

For `CCCCCCCCCCCCCCCCCC(=O)CC(COC(=O)CCCCCCCCCCCCCCCCC)COP(=O)(O)OCCNCCOC1(C(=O)O)OC(C(O)C(O)CO)C(NC(C)=O)C(O)C1O` (centres unmarked) [Compound 8], the “HAI (M) H1N1” value in [4] was >0.001 M.

On to `CCCCCCCCCCCCCCCCCC(=O)CC(COC(=O)CCCCCCCCCCCCCCCCC)COP(=O)(O)OCCNCCOC1(C(=O)O)OC(C(O)C(O)CO)C(NC(C)=O)C(O)C1F` (centres unmarked) [Compound 9], for which the IC50 in data set [5] came to 15.6 µM; in data set [6] (setting [23]), 31.3 µM; in data set [6] (setting [24]), 31.3 µM; in data set [7] it was 125 µM; in data set [8] (setting [23]), 125 µM; in data set [8] (setting [24]) it was 125 µM. Also, the IC50 in data set [9] (setting [23]) stood at 150 µM; in [9] (setting [24]), 180 µM; in data set [10] (setting [23]), 500 µM; in data set [10] (setting [24]), 250 µM; in data set [11] (setting [23]), 150 µM; in data set [11] (setting [24]), 125 µM. The IC50 in data set [12] (setting [23]) worked out at 180 µM; in data set [12] (setting [24]), 100 µM; in [13] (setting [23]) it was 200 µM; in data set [13] (setting [24]) it was 150 µM; in data set [14] (setting [23]) it was 180 µM; in data set [14] (setting [24]) it was 125 µM. For the same compound, the IC50 in data set [15] (setting [23]) is 250 µM; in [15] (setting [24]), 75 µM; in data set [16] (setting [23]) it was 125 µM; in [16] (setting [24]), 100 µM; in [17] it was 125 µM; in data set [18] (setting [23]), 125 µM. Moreover, the IC50 in data set [18] (setting [24]) was 150 µM; in data set [19], 5.6 µM; in data set [20], 14 µM; in data set [21], ~40 µM; in data set [22] (setting [24]), 31.3 µM. In addition, the “virus sialidase activity inhibition” value in data set [6] and in data set [22] was “completely inhibited” each time. Besides, in [4], the “HAI (M) H1N1” value turned out to be 0.001 M.

The term half-life denotes the time needed for the level to fall by half in the phase considered. Low readings indicate rapid decline, high ones slow decline. By IC50 is commonly meant the concentration at which inhibition is half-maximal.

The values are drawn from patent publication US6664235B1, “Medicaments comprising sialic acid derivatives as active ingredients” (priority 1999, dated 2003).
